Activity calls are given as the source filed them. The rule behind the calls is not given here.
Assays:
[1] = biological target: 5-hydroxytryptamine receptor 4 (Rattus norvegicus) (UniProt Q62758); experiment: Antagonist activity against 5-HT4 receptor mediated relaxation of rat carbachol contracted esophageal muscularis mucosae; type: functional
[2] = test system: Sus scrofa; experiment: Antagonism of 5-HT-induced tachycardia in anesthetized, vagotomized Yucatan micropigs at 1-300 ug/kg dose administered intravenously; type: functional; settings: iv, read-out: ID50 (the source's name)
[3] = test system: Sus scrofa; experiment: Antagonism of 5-HT-induced tachycardia in anesthetized, vagotomized Yucatan micropigs at 30-3000 ug/kg dose administered intraduodenally; type: functional; settings: intraduodenal, read-out: ID50 (the source's name)
[4] = Compound was tested for its half-life period at an intravenous dose of 30 ug/kg; type: ADME, organism-based, Sus scrofa; settings: pig, in vivo, 0.03 mg/kg
[5] = test system: Sus scrofa; experiment: Antagonism of 5-HT-induced tachycardia in anesthetized, vagotomized Yucatan micropigs at 0.1-300 ug/kg dose administered intravenously; type: functional; settings: iv, read-out: ID50 (the source's name)
[6] = test system: Sus scrofa; experiment: Antagonism of 5-HT-induced tachycardia in anesthetized, vagotomized Yucatan micropigs at 3-3000 ug/kg dose administered intraduodenally; no effect; type: functional, organism-based

Sequence of 5-hydroxytryptamine receptor 4 (Rattus norvegicus) (Q62758 whole entry): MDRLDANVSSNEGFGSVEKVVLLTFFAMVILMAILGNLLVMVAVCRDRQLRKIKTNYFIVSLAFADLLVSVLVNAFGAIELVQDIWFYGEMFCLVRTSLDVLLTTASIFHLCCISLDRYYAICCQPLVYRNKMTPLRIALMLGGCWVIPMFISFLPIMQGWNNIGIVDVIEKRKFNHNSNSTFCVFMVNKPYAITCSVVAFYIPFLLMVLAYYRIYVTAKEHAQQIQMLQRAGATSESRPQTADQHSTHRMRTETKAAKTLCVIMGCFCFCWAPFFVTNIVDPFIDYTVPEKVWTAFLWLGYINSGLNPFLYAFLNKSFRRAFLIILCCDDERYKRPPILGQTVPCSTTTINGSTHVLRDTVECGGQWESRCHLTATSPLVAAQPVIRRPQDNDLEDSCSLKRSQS

Compound | pKb [1] | ED50 [2] [µg/kg] | ED50 [3] [µg/kg] | half-life [4] [h] | ED50 [5] [µg/kg] | ID50 [6]
COc1cc(COc2cc(N)c(Cl)cc2C(=O)CCC2CCN(CCNS(C)(=O)=O)CC2)cc(OC)c1 | 9.1 | 4.68 | 245 | 5.25 |  | 
CCCCN1CCC(CCC(=O)c2cc(Cl)c(N)c3c2OCCO3)CC1 | 9.9 |  |  |  |  | 
CS(=O)(=O)NCCN1CCC(CCC(=O)c2cc(Cl)c(N)c3c2OCCO3)CC1 | 9.9 |  |  |  |  | 
CCCCN1CCC(COC(=O)c2cc(Cl)c(N)c3c2OCCO3)CC1 | 10.3 |  |  | < 2.5 | 8 | inactive
